Paper PMC10744391, “Sulfated Triterpene Glycosides from the Far Eastern Sea Cucumber Cucumaria djakonovi: Djakonoviosides C1, D1, E1, and F1; Cytotoxicity against Human Breast Cancer Cell Lines; Quantitative Structure–Activity Relationships” (Marine Drugs, 2023)
“Also recorded” adds a separate entry of the source. Counter-ions that a name gives are not always drawn. Like-named read-outs stand apart in the source and are kept apart here.

Tests used:
[1] = test system: triple-negative MDA-MB-231 human breast cancer cell line; assay: cells; type: cell-based; details: for IC50: Homo sapiens, read-out: Cytotoxicity, IC50, MDA-MB-231; for Selectivity Index (SI), MDA-MB-231: ratio of IC50 for healthy (MCF-10A) and cancer cells
[2] = in vitro; type: cell-based; details: human
[3] = test system: MCF-7 human breast cancer cell line; assay: cells; type: cell-based; details: for IC50: read-out: Cytotoxicity, IC50, MCF-7; for Selectivity Index (SI), MCF-7: ratio of IC50 for healthy (MCF-10A) and cancer cells
[4] = test system: MDA-MB-231 cells; assay: Wound scratch migration assay, MDA-MB-231; type: cell-based, human; details: MDA-MB-231, concentration 1 μM, 24 h of incubation
Description: (§1) Attached to special migration plate plastic bottom MCF-7 or MDA-MB-231 cells were separated by a silicone insert (Culture-insert 2 Well 24, ibiTreat). After removing an insert, gap between the cells was 500 ± 50 μm. Cell debris and floating cells were deleted by washing twice with PBS; 10 μM of 5 mM initial solution of CFDA SE ((5,6)-carboxyfluorescein succinimidyl ester) (LumiTrace CFDA SE kit, Lumiprobe, Moscow, Russia) in DMSO was dissolved in PBS and added to cells for 5 min at 37 °C; after washing twice with PBS, the fresh culture medium was added. Then, cells were treated with various concentrations of glycosides or culture medium only (vehicle control) and left for 24 and 72 h. Cell migration into the wound area was observed under a fluorescence microscope (MIB-2-FL, LOMO, Russia) with objective 10× magnification.

[5] = test system: human erythrocytes; assay: Hemolytic activity against human erythrocytes; type: cell-based; details: human erythrocytes; for HC50: Erythrocyte, 1 h at 37 °C, dose causing lysis of 50% erythrocytes, read-out: ED50, Erythrocytes (hemolytic activity); for hemolytic activity (in words): concentration range up to 50 µM
Description: Human blood (B(III) Rh+) was used to obtain erythrocytes by centrifuging 450× g three times for 5 min with phosphate-buffered saline (PBS) (pH 7.4) at 4 °C on centrifuge LABOFUGE 400R (Heraeus, Hanau, Germany). Ice-cold PBS (pH 7.4) was used for resuspension of erythrocytes residue to a final optical density of 1.5 at 700 nm, which was kept on ice. Then, 20 µL of tested compound solution or control—djakonovioside A1 [5]—were added to 180 µL of erythrocyte suspension in V-bottom 96-well plates and exposed for 1 h at 37 °C. Next, centrifugation at 900× g for 10 min on laboratory centrifuge LMC-3000 (Biosan, Riga, Latvia), led to layers’ separation, and 100 µL of supernatant was carefully decanted and transferred into new flat-plate each. The values of erythrocyte lysis were measured on microplate photometer Multiskan FC (Thermo Fisher Scientific, Waltham, MA, USA) at λ = 570 nm as hemoglobin concentration in supernatant. The effective dose, causing lysis of 50% erythrocytes (ED50), was calculated with SigmaPlot 14.0 software. All the experiments were carried out in triple repetitions, p ≤ 0.05.

[6] = test system: T-47D human breast cancer cell line; assay: cells; type: cell-based; details: for IC50: Homo sapiens, T47D, read-out: Cytotoxicity, IC50, T-47D
[7] = test system: human breast cancer cell lines MCF-7, T-47D and MDA-MB-231; assay: Cytotoxic activity (MTT assay), statements on the human breast cancer cell lines together; type: cell-based
Source text: Human erythrocytes were purchased from the Station of Blood Transfusion, Vladivostok. Human mammary epithelial cell line MCF-10A CRL-10317, human breast cancer cell lines T-47D HTB-133, MCF-7 HTB-22, and MDA-MB-231 CRM-HTB-26 were received from ATCC (Manassas, VA, USA). Culturing conditions: medium of RPMI-1640 with 1% penicillin/streptomycin (Biolot, St. Petersburg, Russia) and 10% fetal bovine serum (FBS) (Biolot, St. Petersburg, Russia) for T-47D cell line; Minimum Essential Medium (MEM) with 1% penicillin/streptomycin sulfate (Biolot, St. Petersburg, Russia) and FBS (Biolot, St. Petersburg, Russia) to a final concentration of 10% for MCF-7 and MDA-MB-231 cells; DMEM/F12 medium with 10% FBS, 20 ng/mL EGF, […], 100 ng/mL cholera toxin, 10 μg/mL insulin, and 1% penicillin/streptomycin (Bioinnlabs, Russia) for MCF-10A cell line.
Methodology: to each well of 96-well plates, the cell suspension (180 µL) with solution (20 µL) of tested glycoside in the certain concentration was placed (MCF-10A, MCF-7, T-47D, and MDA-MB-231—7 × 10^3 cells per well) and incubated in the atmosphere with 5% CO2 at 37 °C for 24 h. The times of incubation of cucumarioside A2-5 (6) and djakonoviosides C1 (1) and E1 (3), at concentrations of 0.5–12.0 μM with T-47D, MCF-7, or MDA-MB-231 cells, were 24, 48, and 72 hrs. Then, the solutions of tested compounds with medium were replaced by 100 µL of fresh medium, and 10 µL of 3-(4,5-dimethylthiazol-2-yl)-2,5-diphenyltetrazolium bromide (MTT) (PanReac, AppliChem, Darmstadt, Germany) stock solution (5 mg/mL) was added to each well and incubated for 4 h, followed by the addition of 100 µL of SDS-HCl solution (1 g SDS/10 mL d-H2O/17 µL 6 N HCl) and further incubated for 18 h. Multiskan FC microplate photometer (Thermo Fisher Scientific, Waltham, MA, USA) was used to measure the absorbance of the converted dye formazan at 570 nm. The concentration caused 50% cell metabolic activity inhibition (IC50), which expresses the cytotoxic activity of each glycoside. The experiments were conducted in triplicate, p ≤ 0.05.

[8] = test system: MDA-MB-231 cells; assay: Colony formation (clonogenic) assay, MDA-MB-231; type: cell-based, human; details: 10 days; for inhibitory effect on the formation of colonies: MDA-MB-231, concentration 2 μM
Description: (§2) The influence of glycosides on colony formation by MCF-7 or MDA-MB-231 cells was tested by the clonogenic assay. Cell density: 1 × 10^3 for MDA-MB-231 and 0.3 × 10^3 for MCF-7 cells per well; cell culture: MEM media, 10% FBS, 10,000 U/mL of penicillin, and 10,000 μg/mL of streptomycin supplemented or not (control) with different concentration of glycosides; incubation conditions: 10 days, 37 °C, atmosphere with 5% CO2; obtained: visible to eye colonies (at least 50 cells per colony); fixation with methanol (25 min); staining with 0.5% solution of crystal violet (25 min); washing and air-drying of plates.

[9] = test system: MCF-7 cells; assay: Wound scratch migration assay, MCF-7; type: cell-based, human; details: MCF-7, concentrations below EC50, 72 h
Description: as §1

[10] = test system: MCF-7 cells; assay: Colony formation (clonogenic) assay, MCF-7; type: cell-based, human; details: MCF-7, concentration 2 μM, 10 days
Description: as §2

Compound: COC1C(O)C(COS(=O)(=O)O)OC(OC2C(O)C(COS(=O)(=O)O)OC(OC3C(C)OC(OC4C(OC5CCC6(C)C7=CCC8(C)C(C(C)=O)CCC8(C)C7CCC6C5(C)C)OCC(OS(=O)(=O)O)C4O)C(OC4OCC(O)C(O)C4O)C3O)C2O)C1O (centres unmarked) (hydrate or solvate) [isokoreoside A]
- melting point: 215 °C

Compound: COC1C(O)C(CO)OC(OC2C(O)C(CO)OC(OC3C(C)OC(OC4C(OC5CCC6(C)C7CCC89C(=O)OC(C)(CC(=O)CC(C)C)C8C(OC(C)=O)CC9(C)C7=CCC6C5(C)C)OCC(OS(=O)(=O)O)C4O)C(OC4OCC(O)C(O)C4O)C3O)C2O)C1O (centres unmarked) [cucumarioside A2-5]
- IC50 ([1]; MDA-MB-231, MTT, 24 h incubation): 2.58 ± 0.1 µM
- Selectivity Index (SI), MDA-MB-231 [1]: 5.43
- IC50 ([2]; MTT, 24 h incubation, read-out: Cytotoxicity, IC50, MCF-10A): 14 ± 1.03 µM
- IC50 ([3]; Homo sapiens, MCF7, MTT, 24 h incubation): 25.7 ± 1.49 µM
- Selectivity Index (SI), MCF-7 [3]: 0.55
- inhibition of cell migration (scratch assay) ([4]; 1 µM): about 85 % as compared to the control
- inhibition of cell migration (scratch assay) ([4]; listed as Cucumarioside A2-5, 1 µM): 85 % as compared to the control
- HC50 [5]: 1.63 ± 0.13 µM
- IC50 ([6]; MTT, 24 h incubation): 5.81 ± 0.86 µM
- Selectivity Index (SI), T-47D ([6]; ratio of IC50 for healthy (MCF-10A) and cancer cells): 2.41
- cytotoxicity on prolonged incubation (in words) ([7]; incubation for 48 and 72 h, 1 on MDA-MB-231, 6 on T-47D and MDA-MB-231): did not lose cytotoxicity over time

Compound: C=C(C)CCCC1(C)OC(=O)C23CCC4C(=CCC5C(C)(C)C(OC6OCC(OS(=O)(=O)O)C(O)C6OC6OCC(OC7OC(CO)C(O)C(OC8OC(CO)C(O)C(OC)C8O)C7O)C(O)C6OC6OCC(O)C(O)C6O)CCC45C)C2(C)CC(OC(C)=O)C13 [djakonovioside C1, 3β-O-{3-O-methyl-β-D-glucopyranosyl-(1→3)-β-D-glucopyranosyl-(1→4)-[(1→2)-β-D-xylopyranosyl]-β-D-xylopyranosyl-(1→2)-4-O-sodium sulfate-β-D-xylopyranosyl}-16β-acetoxyholosta-7,25-dien]
- IC50 ([1]; MDA-MB-231, 24 h): 7.67 ± 0.32 µM
- Selectivity Index (SI), MDA-MB-231 [1]: 2.84
- IC50 at 24 h [2]: 21.8 ± 0.72 µM
- IC50 ([3]; Homo sapiens, MCF7, 24 h): 38.6 ± 2.36 µM
- Selectivity Index (SI), MCF-7 [3]: 0.56
- HC50 [5]: 8.55 ± 0.04 µM
- hemolytic activity (in words) ([5]; listed as Djakonovioside C1): slightly lower activity
- IC50 ([6]; 24 h): 16.8 ± 0.76 µM
- cytotoxicity on prolonged incubation (in words) [7]: did not lose cytotoxicity over time
- inhibitory effect on the formation and growth of colonies ([8]; MDA-MB-231, concentration 1 μM): approximately 25 % of the control
- inhibitory effect on the formation of colonies [8]: approximately 25 % of the control

Compound: C=C(C)CCCC1(C)OC(=O)C23CCC4C(=CCC5C(C)(C)C(OC6OCC(OS(=O)(=O)O)C(O)C6OC6OC(CO)C(OC7OC(COS(=O)(=O)O)C(O)C(OC8OC(COS(=O)(=O)O)C(O)C(OC)C8O)C7O)C(O)C6O)CCC45C)C2(C)CC(OC(C)=O)C13 [djakonovioside E1, 3β-O-[6-O-sodium sulfate-3-O-methyl-β-D-glucopyranosyl-(1→3)-6-O-sodium sulfate-β-D-glucopyranosyl-(1→4)-β-D-glucopyranosyl-(1→2)-4-O-sodium sulfate-β-D-xylopyranosyl]-16β-acetoxyholosta-7,25-dien]
- IC50 ([1]; MDA-MB-231, 24 h): 2.19 ± 0.17 µM
- Selectivity Index (SI), MDA-MB-231 [1]: >22.83
- IC50 at 24 h [2]: > 50 µM
- migration of MCF-7 cells (in words) [9]: reliable blockage of the migration
- inhibitory effect on the formation of colonies [10]: 30.73 ± 0.49 % of the control
- IC50 ([3]; Homo sapiens, MCF7, 24 h): 1.52 ± 0.14 µM
- EC50 ([3]; Homo sapiens, MCF7, MTT, 48 h incubation, read-out: EC50, MCF-7 cells, 48 h incubation (antiproliferative effect)): 0.78 ± 0.32 µM
- Selectivity Index (SI), MCF-7 [3]: >32.89
- HC50 [5]: 21.7 ± 0.94 µM
- hemolytic activity (in words) [5]: weakly hemolytic; also recorded: low hemolytic activity
- IC50 ([6]; 24 h): > 50 µM
- inhibitory effect on the formation of colonies [8]: 35.68 ± 2.00 % of the control
